Assay results reported in PubChem BioAssay (NCI).
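In this assay, cells in 96-well plates receive the compound at five concentrations for 48 hours. Endpoints are linearly interpolated between the surrounding concentrations. GI50: concentration for 50% inhibition of growth. TGI denotes the concentration required for complete inhibition of growth.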

Legend:
Assay in all cases: growth of human tumour cells (NCI), 48 h
MDA-MB-231 breast = test system: MDA-MB-231 breast
SN12C renal = test system: SN12C renal
RPMI-8226 leukemia = test system: RPMI-8226 leukemia
U251 CNS = test system: U251 CNS
SK-MEL-5 melanoma = test system: SK-MEL-5 melanoma
NCI-H226 lung = test system: NCI-H226 lung
MDA-N = test system: MDA-N
MALME-3M melanoma = test system: MALME-3M melanoma
HT29 colon = test system: HT29 colon
HOP-92 NSCLC = test system: HOP-92 NSCLC

O=C(/C=C/c1ccc(O)cc1)NCCc1ccc(O)cc1
TGI (MDA-MB-231 breast): > 12.5 µM | TGI (SN12C renal): > 12.5 µM | TGI (RPMI-8226 leukemia): > 12.5 µM | TGI (U251 CNS): > 12.5 µM | TGI (SK-MEL-5 melanoma): > 12.5 µM | TGI (NCI-H226 lung): > 12.5 µM | TGI (MDA-N): > 12.5 µM | TGI (MALME-3M melanoma): > 12.5 µM | TGI (HT29 colon): > 12.5 µM | TGI (HOP-92 NSCLC): > 12.5 µM

COc1cccc(-c2nc3c(C(=O)NCCN(C)C)cccc3[nH]2)c1
TGI (SN12C renal): > 70.6 µM | TGI (RPMI-8226 leukemia): 46.3 µM | TGI (U251 CNS): > 61.6 µM | TGI (SK-MEL-5 melanoma): 31.5 µM | TGI (NCI-H226 lung): 35.7 µM | TGI (MALME-3M melanoma): 27.6 µM | TGI (HT29 colon): 42 µM | TGI (HOP-92 NSCLC): 46.7 µM

C[N+]1(C)CCC(C#N)(c2ccccc2)CC1
TGI (RPMI-8226 leukemia): > 100 µM | TGI (U251 CNS): > 100 µM | TGI (SK-MEL-5 melanoma): > 100 µM | TGI (MDA-N): > 100 µM | TGI (MALME-3M melanoma): > 100 µM | TGI (HT29 colon): > 100 µM | TGI (HOP-92 NSCLC): > 100 µM

Oc1cc2cccc[n+]2c2cccc(Cl)c12
GI50 (MDA-MB-231 breast): 91.5 µM | GI50 (SN12C renal): 17.2 µM | TGI (SN12C renal): 45.4 µM | GI50 (RPMI-8226 leukemia): 40.4 µM | GI50 (U251 CNS): 42 µM | GI50 (SK-MEL-5 melanoma): 19.7 µM | TGI (SK-MEL-5 melanoma): 34.7 µM | GI50 (MDA-N): 16.9 µM | TGI (MDA-N): 33.5 µM | GI50 (MALME-3M melanoma): 18.4 µM | TGI (MALME-3M melanoma): 40.4 µM | GI50 (HT29 colon): 40.7 µM | GI50 (HOP-92 NSCLC): 15.8 µM | TGI (HOP-92 NSCLC): 71.5 µM

CC1(C)COC(/C=C/C2=NC(C)(C)CO2)=N1
TGI (MDA-MB-231 breast): 44.2 µM | TGI (SN12C renal): 9.89 µM | TGI (RPMI-8226 leukemia): 26.2 µM | TGI (U251 CNS): 64.3 µM | TGI (SK-MEL-5 melanoma): 27.3 µM | TGI (NCI-H226 lung): 59.4 µM | TGI (MDA-N): 48.7 µM | TGI (MALME-3M melanoma): 41.9 µM | TGI (HT29 colon): 98.4 µM | TGI (HOP-92 NSCLC): 84.1 µM

CC(C)C(N=Cc1ccccc1O)C(=O)O (configuration not stated)
TGI (MDA-MB-231 breast): > 100 µM | TGI (SN12C renal): > 100 µM | TGI (RPMI-8226 leukemia): > 100 µM | TGI (U251 CNS): > 100 µM | TGI (SK-MEL-5 melanoma): > 100 µM | TGI (NCI-H226 lung): > 100 µM | TGI (MDA-N): > 100 µM | TGI (MALME-3M melanoma): > 100 µM | TGI (HT29 colon): > 100 µM | TGI (HOP-92 NSCLC): > 100 µM

O=C1/C(=C\c2ccc(-c3ccc(Cl)cc3Cl)o2)SC2N=C(COc3ccc(Cl)cc3)NN12 (configuration not stated)
TGI (MDA-MB-231 breast): > 100 µM | TGI (SN12C renal): > 100 µM | TGI (RPMI-8226 leukemia): > 100 µM | TGI (U251 CNS): 98.2 µM | TGI (SK-MEL-5 melanoma): > 100 µM | TGI (NCI-H226 lung): > 100 µM | TGI (MDA-N): > 100 µM | TGI (MALME-3M melanoma): > 100 µM | TGI (HT29 colon): > 100 µM | TGI (HOP-92 NSCLC): > 100 µM

CC(O)C(O)C(N)CC=O (configuration not stated)
TGI (SN12C renal): > 500 µM | TGI (RPMI-8226 leukemia): > 500 µM | TGI (U251 CNS): > 500 µM | TGI (SK-MEL-5 melanoma): > 500 µM | TGI (NCI-H226 lung): > 500 µM | TGI (MALME-3M melanoma): > 500 µM | TGI (HT29 colon): > 500 µM | TGI (HOP-92 NSCLC): > 500 µM

O=C(O)C1CC(c2ccccc2)=NN1c1ccccc1 (configuration not stated)
TGI (MDA-MB-231 breast): > 100 µM | TGI (SN12C renal): > 100 µM | TGI (RPMI-8226 leukemia): > 100 µM | TGI (U251 CNS): > 100 µM | TGI (SK-MEL-5 melanoma): > 100 µM | TGI (NCI-H226 lung): > 100 µM | TGI (MDA-N): > 100 µM | TGI (MALME-3M melanoma): 96.4 µM | TGI (HT29 colon): > 100 µM | TGI (HOP-92 NSCLC): > 100 µM

CCOC(=O)n1cncc1CC(NC(=O)Cc1c(C(=O)C=C(C)C)[nH]c2ccccc12)C(=O)OC (configuration not stated)
TGI (MDA-MB-231 breast): 36.1 µM | TGI (SN12C renal): 39.5 µM | TGI (RPMI-8226 leukemia): > 100 µM | TGI (U251 CNS): 44.9 µM | TGI (SK-MEL-5 melanoma): 37.5 µM | TGI (NCI-H226 lung): 41.3 µM | TGI (MDA-N): 84.3 µM | TGI (MALME-3M melanoma): 32.8 µM | TGI (HT29 colon): 66.6 µM | TGI (HOP-92 NSCLC): 26.4 µM

CN(C)Cc1ccc(C(=O)Nc2ccc3ncnc(Nc4ccc(Oc5cccc(F)c5)c(Cl)c4)c3c2)cc1
GI50 (MDA-MB-231 breast): 1.65 µM | TGI (MDA-MB-231 breast): 3.12 µM | GI50 (SN12C renal): 1.44 µM | TGI (SN12C renal): 2.81 µM | GI50 (SK-MEL-5 melanoma): 1.59 µM | TGI (SK-MEL-5 melanoma): 2.97 µM | GI50 (MALME-3M melanoma): 1.53 µM | TGI (MALME-3M melanoma): 3.01 µM | GI50 (HOP-92 NSCLC): 1.09 µM | TGI (HOP-92 NSCLC): 2.44 µM
